Columns and labels:
Assay in all cases: relative viability (nuclei count vs DMSO), 5 days (fraction); higher = more cells survive
[1] = compound: C1CC1C(=O)NC2=NNC3=C2C=CC(=C3)C4=CC(=CC=C4)C(=O)NC5CC5 [XMD13-2] + C[C@]1(O)C[C@@H](c2nc(-c3ccc4ccc(-c5ccccc5)nc4c3)c3c(N)nccn32)C1 [Linsitinib] (partner 1 µM)
How it was run: (§1)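 Lung cancer cell lines were pin-tool dosed in 1536-well plates on the day after seeding, with either a lone drug or a fixed anchor-drug dose plus five library-drug doses (not always all listed) in √10 steps. Nuclei were counted on 4× images after 5 days. Relative viability is the ratio of treated-well to vehicle-well nuclei counts, with each value a median of duplicate plates.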

[2] = compound: Cc1ccc(C(=O)Nc2cccc(C(F)(F)F)c2)cc1Nc1cncc(C(N)=O)c1 [ALW-II-49-7] + C[C@]1(O)C[C@@H](c2nc(-c3ccc4ccc(-c5ccccc5)nc4c3)c3c(N)nccn32)C1 [Linsitinib] (partner 1 µM)
How it was run: as §1

[3] = compound: Cc1ccc(C(=O)Nc2cccc(C(F)(F)F)c2)cc1Nc1cncc(C(N)=O)c1 [ALW-II-49-7] + O=C(c1cc(Cc2n[nH]c(=O)c3ccccc23)ccc1F)N1CCN(C(=O)C2CC2)CC1 [Olaparib] (partner 8 µM)
How it was run: as §1

[4] = compound: Cc1ccc(C(=O)Nc2cccc(C(F)(F)F)c2)cc1Nc1cncc(C(N)=O)c1 [ALW-II-49-7] + O=C(CCCCCCC(=O)Nc1ccccc1)NO [Vorinostat] (partner 1 µM)
How it was run: as §1

Row | Cell Line | relative viability ([1]; first compound 0.05 µM) | relative viability ([1]; first compound 0.1581 µM) | relative viability ([1]; first compound 0.5 µM) | relative viability ([1]; first compound 1.581 µM) | relative viability ([1]; first compound 5 µM) | relative viability ([2]; first compound 0.08 µM) | relative viability ([2]; first compound 0.253 µM) | relative viability ([2]; first compound 0.8 µM) | relative viability ([2]; first compound 2.53 µM) | relative viability ([2]; first compound 8 µM) | relative viability ([3]; first compound 0.08 µM) | relative viability ([3]; first compound 0.253 µM) | relative viability ([3]; first compound 0.8 µM) | relative viability ([3]; first compound 2.53 µM) | relative viability ([3]; first compound 8 µM) | relative viability ([4]; first compound 0.08 µM) | relative viability ([4]; first compound 0.253 µM) | relative viability ([4]; first compound 0.8 µM) | relative viability ([4]; first compound 2.53 µM) | relative viability ([4]; first compound 8 µM)
1 | 201T | 1.06 | 1.08 | 1.01 | 0.957 | 0.908 | 1.03 | 1.06 | 1.02 | 0.983 | 1 | 0.846 | 0.844 | 0.844 | 0.873 | 0.69 | 0.922 | 1.02 | 0.995 | 1.02 | 0.801
2 | A549 | 0.856 | 0.513 | 0.579 | 0.677 | 0.674 | 0.654 | 0.511 | 0.551 | 0.263 | 0.481 | 0.407 | 0.368 | 0.222 | 0.344 | 0.263 |  |  |  |  | 
3 | A-427 | 1.11 | 1.14 | 1.18 | 1.09 | 1 | 1.17 | 1.15 | 1.15 | 1.12 | 1.18 | 0.673 | 0.831 | 0.81 | 0.672 | 0.71 | 0.936 | 0.902 | 0.854 | 0.838 | 0.826
4 | ABC-1 | 0.918 | 0.874 | 1.04 | 0.704 | 0.86 | 0.87 | 0.85 | 0.676 | 0.885 | 0.765 | 0.636 | 0.828 | 0.744 | 0.838 | 0.921 | 1.05 | 1.2 | 1.13 | 0.78 | 1.27
5 | BEN | 1.07 | 0.884 | 0.963 | 0.866 | 0.898 | 0.69 | 0.865 | 0.99 |  | 0.936 | 1.12 | 1.11 | 1.18 | 0.548 | 0.98 | 0.557 | 0.723 | 0.592 | 0.441 | 0.558
6 | CAL-12T | 0.802 | 0.764 | 0.837 | 0.68 | 0.843 | 1.01 | 0.965 | 0.736 | 0.796 | 0.701 | 0.797 | 0.644 | 0.773 | 0.753 | 0.719 | 0.681 | 0.866 | 0.834 | 0.737 | 0.76
7 | COR-L23 | 1.01 | 0.917 | 1.02 | 0.848 | 0.872 | 0.947 | 0.829 | 0.769 | 0.953 | 0.957 | 0.327 | 0.343 | 0.327 | 0.313 | 0.292 | 0.409 | 0.452 | 0.496 | 0.414 | 0.385
8 | COR-L 105 | 1.04 | 1.13 | 1 | 0.875 | 0.797 | 0.884 | 0.848 | 0.824 | 0.745 | 0.752 | 0.646 | 0.626 | 0.781 | 0.663 | 0.578 | 0.772 | 0.911 | 0.688 | 0.809 | 0.967
9 | Calu-6 | 0.949 | 0.996 |  | 0.912 | 0.913 | 0.987 | 0.847 | 0.903 | 0.881 | 0.852 | 0.588 | 0.521 | 0.576 | 0.45 | 0.417 |  |  |  |  | 
10 | ChaGo-K-1 |  |  |  |  |  |  |  |  |  |  | 0.384 | 0.427 | 0.394 | 0.411 | 0.39 | 0.744 | 0.75 | 0.713 | 0.689 | 0.83
11 | EBC-1 | 0.889 | 0.966 | 1.08 | 0.874 | 0.766 | 0.83 | 0.784 | 0.358 | 0.856 | 0.391 | 0.724 | 0.794 | 0.676 | 0.646 | 0.688 |  |  |  |  | 
12 | EKVX | 1.16 | 0.911 | 0.992 | 0.871 | 1.05 | 0.972 | 0.91 | 1.05 | 0.699 | 0.815 | 0.77 | 0.847 | 0.823 | 0.374 | 0.855 | 0.407 | 0.747 | 0.734 | 0.678 | 0.636
13 | EMC-BAC-2 | 0.912 | 0.82 | 0.841 | 0.848 | 0.689 | 0.811 | 0.814 | 0.894 | 0.836 | 0.747 | 0.482 | 0.475 | 0.445 | 0.396 | 0.367 | 0.462 | 0.419 | 0.301 | 0.409 | 0.281
14 | EPLC-272H | 1.21 | 1.08 | 1.25 | 1.06 | 0.284 | 0.954 | 0.922 | 1.15 | 1.26 | 1.18 | 0.609 | 0.468 | 0.506 | 0.711 | 0.64 | 0.37 | 0.436 | 0.352 | 0.32 | 0.301

From the supplement of paper PMC10307832
